In this data set the target is T1, telomerase (Homo sapiens, UniProt O14746).
T1 construct: made in house; host or cells: 293 cells over-expressing hTERT
In words: Bio-Tel FlashPlate telomerase inhibition assay. It counts as biochemical. As for the experimental part:
Extracts used for screening telomerase inhibitors were routinely prepared from 293 cells over-expressing the protein catalytic subunit of telomerase (hTERT). […] 200 ml of packed cells (harvested from about 100 liters of culture) were resuspended in an equal volume of hypotonic buffer (10 mM Hepes pH 7.9, 1 mM MgCl2, 1 mM DTT, 20 mM KCl, 1 mM PMSF) and lysed using a dounce homogenizer. The glycerol concentration was adjusted to 10% and NaCl was slowly added to give a final concentration of 0.3 M. The lysed cells were stirred for 30 min and then pelleted at 100,000×g for 1 hr. Solid ammonium sulfate was added to the S100 supernatant to reach 42% saturation. The material was centrifuged; the pellet was resuspended in one fifth of the original volume and dialyzed against Buffer ‘A’ containing 50 mM NaCl. After dialysis the extract was centrifuged for 30 min at 25,000×g. Prior to affinity chromatography, Triton X-100™ (0.5%), KCl (0.3 M) and tRNA ([…]) were added. Affinity oligonucleotide (5′-biotinTEG-biotinTEG-biotinTEG-GTA GAC CTG TTA CCA guu agg guu ag 3′ [SEQ ID NO: 16]; lower case represents 2′ O-methyl ribonucleotides and upper case represents deoxynucleotides) was added to the extract (1 nmol per 10 ml of extract). After an incubation of 10 min at 30° C., Neutravidin beads (Pierce; 250 μl of a 50% suspension) were added and the mixture was rotated overnight at 4° C. The beads were pelleted and washed three times with Buffer ‘B’ containing 0.3 M KCl, twice with Buffer ‘B’ containing 0.6 M KCl, and twice more with Buffer B containing 0.3 M KCl. Telomerase was eluted in Buffer ‘B’ containing 0.3 M KCl, 0.15% Triton X-100™ and a 2.5 molar excess of displacement oligonucleotide (5′-CTAACCCTAACTGGTAACAGGTCTAC-3′ [SEQ ID NO: 17] at 0.5 ml per 125 μl of packed Neutravidin beads) for 30 min. at room temperature. A second elution was performed and pooled with the first. Purified extracts typically had specific activities of 10 fmol nucleotides incorporated/min/μl extract, or 200 nucleotides/min/mg total protein.
A suitable assay for detection and/or measurement of telomerase activity is based on a measurement of the addition of TTAGGG (SEQ ID NO. 8) telomeric repeats to a biotinylated telomerase substrate primer, a reaction catalyzed by telomerase. The biotinylated products are captured in streptavidin-coated microtiter plates. An oligonucleotide probe complementary to 3.5 telomere repeats labeled with ^33P is used for measuring telomerase products, as described below. Unbound probe is removed by washing and the amount of probe annealing to the captured telomerase products is determined by scintillation counting.
The data provided in Tables 1 and 2 below were obtained by performing the assay as described below: • 1. Oligonucleotide conjugates were stored as concentrated stocks and dissolved in PBS. • 2. For testing, the oligonucleotide conjugates were diluted to a 15× working stock in PBS and 2 μl was dispensed into two wells of a 96-well microtiter dish (assayed in duplicate). • 3. Telomerase extract was diluted to a specific activity of 0.04-0.09 fmol dNTP incorporated/min./μl in Telomerase Dilution Buffer and 18 μl added to each sample well to preincubate with compound for 30 minutes at room temperature. • 4. The telomerase reaction was initiated by addition of 10 μl Master Mix to the wells containing telomerase extract and oligonucleotide compound being tested. The plates were sealed and incubated at 37° C. for 90 min. • 5. The reaction was stopped by the addition of 10 μl HCS. • 6. 25 μl of the reaction mixture was transferred to a 96-well streptavidin-coated FlashPlate™ (NEN) and incubated for 2 hours at room temperature with mild agitation. • 7. The wells were washed three times with 180 μl 2×SSC without any incubation.
8. The amount of probe annealed to biotinylated telomerase products was detected in a scintillation counter.

Where [1] appears, read: Table 1, oligonucleotide has N3′→P5′ phosphoramidate (NP) internucleoside linkages, read-out: IC50 NP.
Setting [2] is: Table 1, oligonucleotide has N3′→P5′ thio-phosphoramidate (NPS) internucleoside linkages, read-out: IC50 NPS.
[3] abbreviates: Table 2, oligonucleotide has N3′→P5′ thio-phosphoramidate (NPS) internucleoside linkages, read-out: IC50 NPS.

Several values for one entry are separate records, joined by “and”; a condition that tells them apart may be missing. Equal entries are not always repeated. Where two headings read alike, the source gives them in different places.

T1 sequence (O14746 whole entry): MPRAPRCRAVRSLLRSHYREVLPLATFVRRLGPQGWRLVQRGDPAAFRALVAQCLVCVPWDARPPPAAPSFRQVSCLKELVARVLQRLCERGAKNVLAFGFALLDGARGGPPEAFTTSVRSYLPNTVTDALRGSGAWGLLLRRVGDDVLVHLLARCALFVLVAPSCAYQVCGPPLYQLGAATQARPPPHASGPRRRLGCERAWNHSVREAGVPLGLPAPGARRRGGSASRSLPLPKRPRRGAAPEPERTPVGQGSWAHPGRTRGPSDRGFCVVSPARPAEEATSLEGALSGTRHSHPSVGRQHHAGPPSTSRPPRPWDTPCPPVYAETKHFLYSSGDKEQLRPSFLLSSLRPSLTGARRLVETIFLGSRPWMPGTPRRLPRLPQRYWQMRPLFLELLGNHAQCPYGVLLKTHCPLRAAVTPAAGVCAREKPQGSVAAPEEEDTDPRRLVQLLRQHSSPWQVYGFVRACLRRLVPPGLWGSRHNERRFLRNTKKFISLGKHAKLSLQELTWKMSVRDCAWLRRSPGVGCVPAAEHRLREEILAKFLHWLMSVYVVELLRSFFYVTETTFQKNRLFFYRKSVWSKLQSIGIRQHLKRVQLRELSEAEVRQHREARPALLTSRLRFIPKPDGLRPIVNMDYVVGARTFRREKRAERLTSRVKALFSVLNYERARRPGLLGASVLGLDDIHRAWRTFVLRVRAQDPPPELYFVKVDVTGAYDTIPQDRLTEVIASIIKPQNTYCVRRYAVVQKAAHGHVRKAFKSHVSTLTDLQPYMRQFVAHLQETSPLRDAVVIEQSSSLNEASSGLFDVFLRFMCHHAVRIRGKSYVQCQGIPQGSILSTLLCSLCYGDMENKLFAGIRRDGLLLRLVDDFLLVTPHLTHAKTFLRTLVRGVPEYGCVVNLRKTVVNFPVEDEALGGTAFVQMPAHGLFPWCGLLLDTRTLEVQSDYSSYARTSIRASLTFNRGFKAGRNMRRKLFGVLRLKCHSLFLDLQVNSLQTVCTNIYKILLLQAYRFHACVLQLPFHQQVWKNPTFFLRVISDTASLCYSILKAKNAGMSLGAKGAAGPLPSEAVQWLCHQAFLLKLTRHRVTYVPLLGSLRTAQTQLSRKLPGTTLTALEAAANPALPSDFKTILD
T1 sequence (O60832 whole entry partner): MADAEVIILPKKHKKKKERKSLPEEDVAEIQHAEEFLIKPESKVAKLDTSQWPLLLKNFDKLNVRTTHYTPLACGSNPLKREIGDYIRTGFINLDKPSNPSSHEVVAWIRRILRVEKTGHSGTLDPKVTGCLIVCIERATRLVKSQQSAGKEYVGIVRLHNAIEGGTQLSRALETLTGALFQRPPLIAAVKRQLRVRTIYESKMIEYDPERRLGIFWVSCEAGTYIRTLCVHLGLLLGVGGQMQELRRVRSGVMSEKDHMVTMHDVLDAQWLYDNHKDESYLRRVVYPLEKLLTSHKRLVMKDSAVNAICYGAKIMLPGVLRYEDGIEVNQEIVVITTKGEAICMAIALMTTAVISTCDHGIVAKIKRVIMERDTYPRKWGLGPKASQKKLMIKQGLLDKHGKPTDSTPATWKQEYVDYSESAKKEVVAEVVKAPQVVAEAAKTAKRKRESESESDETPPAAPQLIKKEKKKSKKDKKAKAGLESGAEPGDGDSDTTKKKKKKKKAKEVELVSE
T1 sequence (Q9NPE3 whole entry partner): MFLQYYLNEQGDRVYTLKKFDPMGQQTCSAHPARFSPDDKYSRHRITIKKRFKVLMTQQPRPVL
T1 sequence (Q9NX24 whole entry partner): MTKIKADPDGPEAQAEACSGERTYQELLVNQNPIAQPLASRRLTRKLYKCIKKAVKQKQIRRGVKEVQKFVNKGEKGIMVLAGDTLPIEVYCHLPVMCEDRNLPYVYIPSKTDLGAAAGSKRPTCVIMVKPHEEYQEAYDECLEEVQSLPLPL
T1 sequence (Q9NY12 whole entry partner): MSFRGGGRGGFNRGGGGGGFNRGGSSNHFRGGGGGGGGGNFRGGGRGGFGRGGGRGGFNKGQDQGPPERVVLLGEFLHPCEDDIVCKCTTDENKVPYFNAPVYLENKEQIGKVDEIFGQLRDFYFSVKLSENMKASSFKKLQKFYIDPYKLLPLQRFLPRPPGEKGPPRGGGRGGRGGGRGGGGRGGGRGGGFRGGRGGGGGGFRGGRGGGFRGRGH

The term IC50 denotes the midpoint of a concentration-inhibition curve. With “GGGTTAG (unconjugated): unconjugated oligonucleotide GGGTTAG (SEQ ID: 6), tested with NP and with NPS internucleoside linkages”, the IC50 is 600 nM under setting [1]; 9 nM and 5 nM and 10 nM and 8 nM under setting [2]; 9 nM and 5 nM and 10 nM under setting [3].

With “GTTAGG (unconjugated): unconjugated oligonucleotide GTTAGG (SEQ ID: 7), NP and NPS forms”, the IC50 runs as follows: under setting [1], 470 nM; under setting [2], 120 nM.

As for “TTAGGG (unconjugated): unconjugated oligonucleotide TTAGGG (SEQ ID: 8), NP and NPS forms”, the IC50 reads like this: under setting [1], 11000 nM; under setting [2], 1200 nM; under setting [3], 1170 nM and 1000 to 55000 nM.

The record behind these values is patent US9572891B2, “Oligonucleotide conjugates” (Geron Corporation, priority 2001, dated 2017).
